Source: article PMC5656653, “Evaluation of Ga-DOTA-(D-Asp)n as bone imaging agents: D-aspartic acid peptides as carriers to bone” (Scientific Reports, 2017)
Values belong to the molecule of their own block, whether it stands above or below them. Where a SMILES comes first, the peptide text is derived from it. The star is where a group is joined. DOTA = O=C(O)CN1CCN(CC(=O)O)CCN(CC(=O)*)CCN(CC(=O)O)CC1

Assays:
[1] = Urine analyses by RP-HPLC after i.v. injection; format: in vivo; details: mice, urine from bladder at 1 h post-injection
Protocol: ^67Ga-DOTA-(L-Asp)14 was prepared according to a method described previously. ^67Ga-DOTA-(L-Asp)14 or ^67Ga-DOTA-(D-Asp)14 solution (370 kBq / 200 μL) was intravenously injected to 6-week-old male ddY mice. At 1 h post-injection, mice were sacrificed and their […] were taken from the bladders. After ultrafiltration (Microcon-30, Merck KGaA), the filtrate samples were analyzed by RP-HPLC at a flow rate of 1 mL/min with a gradient mobile phase from water containing 0.1% TFA to 20% methanol in water containing 0.1% TFA for 20 min.

[2] = set-up: method as in PMID 24391942; details: normal mice; cited from earlier work
[3] = Biodistribution experiments in normal mice after i.v. injection; format: in vivo; details: for tissue uptake dose at 10 min / tissue uptake dose at 1 h / tissue uptake dose at 3 h: male, ddY, total radioactivity, Biodistribution of radioactivity; for Biodistribution of radioactivity, Blood / Biodistribution of radioactivity, Bone (Femur) / Biodistribution of radioactivity, Brain / Biodistribution of radioactivity, Heart / Biodistribution of radioactivity, Kidney / Biodistribution of radioactivity, Large-intestine / Biodistribution of radioactivity, Liver / Biodistribution of radioactivity, Lung / Biodistribution of radioactivity, Muscle / Biodistribution of radioactivity, Pancreas / Biodistribution of radioactivity, Small-intestine / Biodistribution of radioactivity, Spleen / F/B ratio (Femur:blood ratio) / Biodistribution of radioactivity, Stomach: mice, mean (SD); for Biodistribution of radioactivity, Stomach: footnote b
Outline: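 Male ddY mice (6 weeks, 27–32 g) received tracer i.v. (37–740 kBq/100 μL); 4–5 per group sacrificed at 10, 60 and 180 min. Weighed tissues and whole left femur (bone) gamma-counted with background and decay correction.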

[4] = mouse, in vivo, iv, Bone (Femur)
[5] = mouse, in vivo, iv, Large-intestine
[6] = mouse, in vivo, iv, Small-intestine

SMILES: O=C(O)C[C@H](NC(=O)[C@H](CC(=O)O)NC(=O)[C@H](CC(=O)O)NC(=O)[C@H](CC(=O)O)NC(=O)[C@H](CC(=O)O)NC(=O)[C@H](CC(=O)O)NC(=O)[C@H](CC(=O)O)NC(=O)[C@H](CC(=O)O)NC(=O)[C@H](CC(=O)O)NC(=O)[C@H](CC(=O)O)NC(=O)[C@H](CC(=O)O)NC(=O)[C@H](CC(=O)O)NC(=O)[C@H](CC(=O)O)NC(=O)[C@H](CC(=O)O)NC(=O)CN1CCN(CC(=O)O)CCN(CC(=O)O)CCN(CC(=O)O)CC1)C(=O)O [^67Ga-DOTA-(L-Asp)14, metal not drawn] ({DOTA}-DDDDDDDDDDDDDD-OH)
Ratio of the intact complex in urine [1]: 55.0 ± 13.9%
Accumulation in bone (in words) [2]: high accumulation in bone
Blood clearance (in words) [2]: rapid blood clearance

tissue uptake dose at 10 min ([3]; mouse, in vivo, iv, Blood): 1.85 %ID
tissue uptake dose at 1 h ([3]; mouse, in vivo, iv, Blood): 0.12 %ID
tissue uptake dose at 3 h ([3]; mouse, in vivo, iv, Blood): 0.05 %ID
tissue uptake dose at 10 min [3, 4]: 9.81 %ID
tissue uptake dose at 1 h [3, 4]: 11.1 %ID
tissue uptake dose at 3 h [3, 4]: 10.9 %ID
tissue uptake dose at 10 min ([3]; mouse, in vivo, iv, Brain): 0.05 %ID
tissue uptake dose at 1 h ([3]; mouse, in vivo, iv, Brain): 0.01 %ID
tissue uptake dose at 3 h ([3]; mouse, in vivo, iv, Brain): 0.03 %ID
tissue uptake dose at 10 min ([3]; mouse, in vivo, iv, Heart): 0.67 %ID
tissue uptake dose at 1 h ([3]; mouse, in vivo, iv, Heart): 0.1 %ID
tissue uptake dose at 3 h ([3]; mouse, in vivo, iv, Heart): 0.06 %ID
tissue uptake dose at 10 min ([3]; mouse, in vivo, iv, Kidney): 22.1 %ID
tissue uptake dose at 1 h ([3]; mouse, in vivo, iv, Kidney): 26.4 %ID
tissue uptake dose at 3 h ([3]; mouse, in vivo, iv, Kidney): 25.1 %ID
tissue uptake dose at 10 min [3, 5]: 0.37 %ID
tissue uptake dose at 1 h [3, 5]: 0.07 %ID
tissue uptake dose at 3 h [3, 5]: 0.23 %ID
tissue uptake dose at 10 min ([3]; mouse, in vivo, iv, Liver): 0.47 %ID
tissue uptake dose at 1 h ([3]; mouse, in vivo, iv, Liver): 0.13 %ID
tissue uptake dose at 3 h ([3]; mouse, in vivo, iv, Liver): 0.14 %ID
tissue uptake dose at 10 min ([3]; mouse, in vivo, iv, Lung): 1.57 %ID
tissue uptake dose at 1 h ([3]; mouse, in vivo, iv, Lung): 0.13 %ID
tissue uptake dose at 3 h ([3]; mouse, in vivo, iv, Lung): 0.06 %ID
tissue uptake dose at 10 min ([3]; mouse, in vivo, iv, Muscle): 0.63 %ID
tissue uptake dose at 1 h ([3]; mouse, in vivo, iv, Muscle): 0.1 %ID
tissue uptake dose at 3 h ([3]; mouse, in vivo, iv, Muscle): 0.3 %ID
tissue uptake dose at 10 min ([3]; mouse, in vivo, iv, Pancreas): 0.59 %ID
tissue uptake dose at 1 h ([3]; mouse, in vivo, iv, Pancreas): 0.13 %ID
tissue uptake dose at 3 h ([3]; mouse, in vivo, iv, Pancreas): 0.08 %ID
tissue uptake dose at 10 min [3, 6]: 0.5 %ID
tissue uptake dose at 1 h [3, 6]: 0.13 %ID
tissue uptake dose at 3 h [3, 6]: 0.15 %ID
tissue uptake dose at 10 min ([3]; mouse, in vivo, iv, Spleen): 0.44 %ID
tissue uptake dose at 1 h ([3]; mouse, in vivo, iv, Spleen): 0.1 %ID
tissue uptake dose at 3 h ([3]; mouse, in vivo, iv, Spleen): 0.11 %ID
tissue uptake dose at 10 min ([3]; mouse, in vivo, iv, Stomach): 0.22 %ID
tissue uptake dose at 1 h ([3]; mouse, in vivo, iv, Stomach): 0.07 %ID
tissue uptake dose at 3 h ([3]; mouse, in vivo, iv, Stomach): 0.07 %ID
Clearance from the blood (in words) ([3]; mouse, in vivo, iv): rapid clearance from the blood
Radioactivity in the kidneys (in words) ([3]; mouse, in vivo, iv): retained
SMILES: O=C(O)CC[C@H](NC(=O)[C@H](CCC(=O)O)NC(=O)[C@H](CCC(=O)O)NC(=O)[C@H](CCC(=O)O)NC(=O)[C@H](CCC(=O)O)NC(=O)[C@H](CCC(=O)O)NC(=O)[C@H](CCC(=O)O)NC(=O)[C@H](CCC(=O)O)NC(=O)[C@H](CCC(=O)O)NC(=O)[C@H](CCC(=O)O)NC(=O)[C@H](CCC(=O)O)NC(=O)[C@H](CCC(=O)O)NC(=O)[C@H](CCC(=O)O)NC(=O)[C@H](CCC(=O)O)NC(=O)CN1CCN(CC(=O)O)CCN(CC(=O)O)CCN(CC(=O)O)CC1)C(=O)O [^67Ga-DOTA-(L-Glu)14, metal not drawn]
Accumulation of radioactivity in bone (in words) ([3]; mouse, in vivo, iv): high accumulation and retention of radioactivity in bone

SMILES: O.O.O=P([O-])([O-])CP(=O)([O-])[O-].[99Tc+4] [^99mTc-MDP, ^99mTc-methylenediphosphonate, reference compound]
Biodistribution of radioactivity, Blood ([3]; i.v., 10 min after injection): 2.43 (0.10) % injected dose
Biodistribution of radioactivity, Bone (Femur) ([3]; i.v., 10 min after injection): 20.76 (1.51) % injected dose
Biodistribution of radioactivity, Brain ([3]; i.v., 10 min after injection): 0.06 (0.01) % injected dose
Biodistribution of radioactivity, Heart ([3]; i.v., 10 min after injection): 0.94 (0.05) % injected dose
Biodistribution of radioactivity, Kidney ([3]; i.v., 10 min after injection): 10.44 (1.56) % injected dose
Biodistribution of radioactivity, Large-intestine ([3]; i.v., 10 min after injection): 0.61 (0.20) % injected dose
Biodistribution of radioactivity, Liver ([3]; i.v., 10 min after injection): 0.61 (0.02) % injected dose
Biodistribution of radioactivity, Lung ([3]; i.v., 10 min after injection): 1.80 (0.16) % injected dose
Biodistribution of radioactivity, Muscle ([3]; i.v., 10 min after injection): 0.57 (0.09) % injected dose
Biodistribution of radioactivity, Pancreas ([3]; i.v., 10 min after injection): 0.77 (0.10) % injected dose
Biodistribution of radioactivity, Small-intestine ([3]; i.v., 10 min after injection): 0.69 (0.15) % injected dose
Biodistribution of radioactivity, Spleen ([3]; i.v., 10 min after injection): 0.54 (0.07) % injected dose
F/B ratio (Femur:blood ratio) ([3]; i.v., 10 min after injection): 8.54 (0.57)
Biodistribution of radioactivity, Stomach ([3]; i.v., 10 min after injection): 0.63 (0.14) % injected dose
Biodistribution of radioactivity, Blood ([3]; i.v., 60 min after injection): 0.23 (0.04) % injected dose
Biodistribution of radioactivity, Bone (Femur) ([3]; i.v., 60 min after injection): 27.92 (3.25) % injected dose
Biodistribution of radioactivity, Brain ([3]; i.v., 60 min after injection): 0.02 (0.00) % injected dose
Biodistribution of radioactivity, Heart ([3]; i.v., 60 min after injection): 0.16 (0.02) % injected dose
Biodistribution of radioactivity, Kidney ([3]; i.v., 60 min after injection): 2.03 (0.50) % injected dose
Biodistribution of radioactivity, Large-intestine ([3]; i.v., 60 min after injection): 0.14 (0.04) % injected dose
Biodistribution of radioactivity, Liver ([3]; i.v., 60 min after injection): 0.27 (0.05) % injected dose
Biodistribution of radioactivity, Lung ([3]; i.v., 60 min after injection): 0.30 (0.03) % injected dose
Biodistribution of radioactivity, Muscle ([3]; i.v., 60 min after injection): 0.13 (0.04) % injected dose
Biodistribution of radioactivity, Pancreas ([3]; i.v., 60 min after injection): 0.13 (0.02) % injected dose
Biodistribution of radioactivity, Small-intestine ([3]; i.v., 60 min after injection): 1.55 (1.68) % injected dose
Biodistribution of radioactivity, Spleen ([3]; i.v., 60 min after injection): 0.14 (0.02) % injected dose
F/B ratio (Femur:blood ratio) ([3]; i.v., 60 min after injection): 120.87 (9.30)
Biodistribution of radioactivity, Stomach ([3]; i.v., 60 min after injection): 0.70 (0.37) % injected dose
Biodistribution of radioactivity, Blood ([3]; i.v., 180 min after injection): 0.05 (0.01) % injected dose
Biodistribution of radioactivity, Bone (Femur) ([3]; i.v., 180 min after injection): 29.03 (2.12) % injected dose
Biodistribution of radioactivity, Brain ([3]; i.v., 180 min after injection): 0.01 (0.00) % injected dose
Biodistribution of radioactivity, Heart ([3]; i.v., 180 min after injection): 0.07 (0.02) % injected dose
Biodistribution of radioactivity, Kidney ([3]; i.v., 180 min after injection): 1.22 (0.36) % injected dose
Biodistribution of radioactivity, Large-intestine ([3]; i.v., 180 min after injection): 0.23 (0.07) % injected dose
Biodistribution of radioactivity, Liver ([3]; i.v., 180 min after injection): 0.16 (0.04) % injected dose
Biodistribution of radioactivity, Lung ([3]; i.v., 180 min after injection): 0.10 (0.02) % injected dose
Biodistribution of radioactivity, Muscle ([3]; i.v., 180 min after injection): 0.06 (0.01) % injected dose
Biodistribution of radioactivity, Pancreas ([3]; i.v., 180 min after injection): 0.07 (0.01) % injected dose
Biodistribution of radioactivity, Small-intestine ([3]; i.v., 180 min after injection): 0.26 (0.08) % injected dose
Biodistribution of radioactivity, Spleen ([3]; i.v., 180 min after injection): 0.07 (0.01) % injected dose
F/B ratio (Femur:blood ratio) ([3]; i.v., 180 min after injection): 546.64 (91.83)
Biodistribution of radioactivity, Stomach ([3]; i.v., 180 min after injection): 0.29 (0.07) % injected dose
Accumulation of radioactivity in bone (in words) ([3]; normal mice, i.v.): high accumulation and retention of radioactivity in bone
